# Measurements as given in patent publication US20250302799A1, “PHARMACEUTICAL COMPOSITION CONTAINING FRAXETIN FOR PREVENTION OR TREATMENT OF ENDOMETRIOSIS” (Research & Business Foundation Sungkyunkwan University, priority 2024, published 2025).
# Tests used:
# Type in all cases: cell-based, human
# End1/E6E7 cells [1] = assay: ROS generation by DCFH-DA flow cytometry
# Description: (§1) To assess the inhibitory effect of fraxetin on ROS generation in endometrial cells, the inventors used flow cytometry to measure ROS levels. In brief, endometriosis cells were stained with DCFH-DA (final concentration 10 μM) for 30 minutes and treated with 50 μM fraxetin in experimental groups, with or without 2 mM N-acetylcysteine (NAC; Cat No. A0737, Sigma), in a 37° C. incubator. Afterward, the cells were washed with PBS, and ROS levels were detected by measuring fluorescence DCF via flow cytometry.
# VK2/E6E7 cells [2] = assay: ROS generation by DCFH-DA flow cytometry
# Description: as §1
# End1/E6E7 cells [3] = assay: Western blot analysis of protein expression and phosphorylation
# Description: To analyze protein expression related to the development of endometriosis following fraxetin treatment, the inventors conducted western blot analysis.
# Briefly, endometrial cells were treated with fraxetin in a dose-dependent manner or in combination with signaling pathway inhibitors. Total proteins were extracted from the treated cells, and protein quantification was performed using the Bradford protein assay (Bio-Rad, Hercules, CA, USA). The extracted proteins were then denatured at 95° C. for 5 minutes and subjected to electrophoresis on a 10% SDS/PAGE gel before being transferred to a nitrocellulose membrane. The membrane was subsequently incubated with primary and secondary antibodies, and target protein expression was analyzed using chemiluminescence detection reagents (Supersignal West Pico, Pierce, Rockford, IL, USA) with the ChemiDoc EQ system and Quantity One software (Bio-Rad).
# End1/E6E7 cells [4] = assay: Cell viability with signaling pathway inhibitors alone or combined with fraxetin; conditions: wortmannin 1 μM, U0126 20 μM
# Description: (§2) The AKT inhibitor wortmannin (1 μM), ERK1/2 inhibitor U0126 (20 μM), and JNK inhibitor SP600125 (20 μM) were used.
# VK2/E6E7 cells [5] = assay: as above; conditions: wortmannin 1 μM, U0126 20 μM
# Description: as §2
# End1/E6E7 cells [6] = assay: BrdU cell proliferation assay; conditions: End1/E6E7, 48 hours
# Description: (§3) To examine the effects of fraxetin on cell proliferation, the inventors performed a BrdU cell proliferation assay.
# (§4) First, 5×10^3 cells of VK2/E6E7, End1/E6E7, and T-HESC were each distributed in 100 μL of medium in 96-well plates.
# (§5) Fraxetin was then administered in a dose-dependent manner (0μM, 5 μM, 10 μM, 20 uM, 50 μM, 100 uM) and cultured for 48 hours, followed by the BrdU assay using a BrdU kit (Cat No: 1167229001, Roche) according to the manufacturer's instructions.
# (§6) After 48 hours of incubation, 10 μM BrdU (Bromodeoxyuridine) was added to each well and incubated at 37° C. in a 5% CO2 incubator for 2 hours. The cells were then fixed, reacted with anti-BrdU-POD solution at room temperature for 90 minutes, and washed three times. Finally, 100 μL of 3, 3′, 5, 5′-tetramethylbenzidine substrate was added, and absorbance was measured at wavelengths of 370 nm and 492 nm to analyze cell proliferation.
# VK2/E6E7 cells [7] = assay: BrdU cell proliferation assay; conditions: VK2/E6E7, 48 hours
# Description: as §3, §4, §5, §6
# End1/E6E7 cells [8] = assay: Mitochondrial membrane potential by JC-1 staining; conditions: End1/E6E7, with tiRNA^HisGTG inhibitor
# Description: To examine changes in mitochondrial membrane potential (MMP) in endometrial cells induced by fraxetin, the inventors used a mitochondria staining kit (Cat no: CS0390, Sigma-Aldrich) to measure MMP.
# In brief, End1/E6E7 and […] endometrial cell lines were cultured in 6-well plates, treated with fraxetin in a dose-dependent manner (0 μM, 5 μM, 10 μM, 20 μM, 50 μM, 100 μM), and incubated at 37° C. in a 5% CO2 incubator for 48 hours. Afterward, the cells were detached using trypsin, centrifuged to obtain cell pellets, resuspended in JC-1 staining solution, and incubated at 37° C. in a 5% CO2 incubator for 20 minutes. The stained cells were centrifuged again, washed with 1X JC-1 staining buffer, and analyzed using flow cytometry to assess changes in mitochondrial membrane potential.
# VK2/E6E7 cells [9] = assay: Mitochondrial membrane potential by JC-1 staining; conditions: VK2/E6E7, with tiRNA^HisGTG inhibitor
# End1/E6E7 cells [10] = assay: Apoptosis by Annexin V and propidium iodide staining; conditions: End1/E6E7, with tiRNA^HisGTG inhibitor
# Description: (§7) To assess the apoptosis-inducing effect of fraxetin in endometrial cells, the inventors used a FITC Annexin V Apoptosis Detection Kit I (BD Sciences).
# (§8) First, VK2/E6E7 and End1/E6E7 cells were cultured in 6-well plates, treated with fraxetin in a dose-dependent manner (0 μM, […], 10 μM, 20 µM, 50 μM, 100 μM), and incubated for 48 hours at 37° C. in a 5% CO2 incubator. The cells were then detached using trypsin, washed with PBS, and mixed slowly with 1 mL of 1X binding buffer. After centrifugation, the cell pellet was resuspended in 200 μL of 1X binding buffer. The suspension (100 μL) was transferred to a 1.5 mL brown tube, and 5 μL of Annexin V and PI (propidium iodide) were added, followed by staining at room temperature for 15 minutes. After adding 400 μL of 1X binding buffer, the stained solution was transferred to a 5 mL FACS tube, and the number of apoptotic cells was measured by analyzing fluorescence intensity using flow cytometry.
# VK2/E6E7 cells [11] = assay: as above; conditions: VK2/E6E7, with tiRNA^HisGTG inhibitor
# Description: as §7, §8
# End1/E6E7 cells [12] = assay: tiRNA expression by real-time PCR; conditions: End1/E6E7, inhibitor 40 nM transfected
# Description: (§9) To confirm the expression of tiRNA (tRNA-derived stress-induced RNAs) associated with the development of endometriosis, the inventors conducted real-time PCR.
# (§10) First, information on candidate tiRNA sequences and mature tRNA sources was obtained from MINTbase (https://cm.jefferson.edu/MINTbase/). miRNA CDNA synthesis was performed using a cDNA kit (Agilent Technologies) to confirm tiRNA expression, with U6 snRNA used for normalization. For transfection of the tiRNA^His GTG inhibitor (5′-AACCGAGAGUACUAACCACUAUACGAUCACCGC-3′) (40 nM), Lipofectamine 2000 was used in Opti-MEM.
# VK2/E6E7 cells [13] = assay: tiRNA expression by real-time PCR; conditions: VK2/E6E7, inhibitor 40 nM transfected
# Description: as §9, §10
compound,measurement,setting,value
"CC(=O)N[C@@H](CS)C(=O)O [NAC, N-acetylcysteine, reference compound]",fraxetin-induced increase of ROS generation under co-treatment,"End1/E6E7 cells [1]; End1/E6E7, 2 mM NAC",mitigated
same,fraxetin-induced increase of ROS generation under co-treatment,"VK2/E6E7 cells [2]; VK2/E6E7, 2 mM NAC",mitigated
N#CC(=C(/N)Sc1ccccc1N)/C(C#N)=C(\N)Sc1ccccc1N [U0126],"S6 phosphorylation, combined with fraxetin compared to fraxetin alone","End1/E6E7 cells [3]; End1/E6E7, inhibitor 20 μM",further downregulated
same,"cell viability, combined treatment with fraxetin compared to inhibitor alone",End1/E6E7 cells [4],marked decrease
same,"cell viability, combined treatment with fraxetin compared to inhibitor alone",VK2/E6E7 cells [5],marked decrease
"C[C@]12CCC3=C4CCC(=O)C=C4CC[C@H]3[C@@H]1CC[C@@]2(O)CC#N [dienogest, reference compound]",relative ROS generation,"End1/E6E7 cells [1]; End1/E6E7, Example 7 comparison fraxetin vs dienogest",did not show significant changes
same,relative ROS generation,"VK2/E6E7 cells [2]; VK2/E6E7, Example 7 comparison fraxetin vs dienogest",did not show significant changes
"COC[C@H]1OC(=O)c2coc3c2[C@@]1(C)C1=C(C3=O)[C@@H]2CCC(=O)[C@@]2(C)C[C@H]1OC(C)=O [wortmannin, reference compound]",JNK phosphorylation,"End1/E6E7 cells [3]; End1/E6E7, wortmannin 1 μM",no significant effect
"tiRNA^HisGTG inhibitor: tiRNA^His GTG inhibitor (5′-AACCGAGAGUACUAACCACUAUACGAUCACCGC-3′), 40 nM, transfected with Lipofectamine 2000 (AACCGAGAGUACUAACCACUAUACGAUCACCGC; chemistry not given here) [reference compound]","cell proliferation, sequential treatment with fraxetin",End1/E6E7 cells [6],decreased
same,"cell proliferation, sequential treatment with fraxetin",VK2/E6E7 cells [7],decreased
same,fraxetin-induced MMP loss,End1/E6E7 cells [8],significantly mitigated
same,fraxetin-induced MMP loss,VK2/E6E7 cells [9],significantly mitigated
same,fraxetin-induced apoptosis,End1/E6E7 cells [10],inhibited
same,fraxetin-induced apoptosis,VK2/E6E7 cells [11],inhibited
same,tiRNA^HisGTG mRNA expression,End1/E6E7 cells [12],decreased
same,tiRNA^HisGTG mRNA expression,VK2/E6E7 cells [13],decreased
